Measurements from publication PMC3742835, “Powerful Inhibition of Experimental Human Pancreatic Cancers by Receptor Targeted Cytotoxic LH-RH analog AEZS-108” (Oncotarget, 2013).

Assays:
CFPAC-1 cancers [1] = test: Human Cancer Pathway Finder PCR Array, CFPAC-1 tumors; format: in vivo, human (xenograft in nude mice)
Excerpt: (§1) After isolating total RNA and protein from tumor samples from experiments 2, 3 and 4 by using the NucleoSpin kit (Macherey-Nagel, Bethlehem, PA, USA), the Human Cancer Pathway Finder Superarray and the Human Apoptosis RT Profiler PCR Array (Qiagen Inc. Valencia, CA, USA) were used to analyze 3 representative samples from each group for mRNA levels of genes related to cell adhesion, apoptosis, cell cycle, angiogenesis, signal transduction, invasion and metastasis. Quality control of RNA samples, synthesis of cDNA and RT-PCR arrays were performed as described. Gene expression data were examined using Excel based PCR Array Data Analysis Software provided by Qiagen; fold-changes in gene expression were calculated using the ΔΔCt method and five housekeeping genes (B2M, HPRT1, RPL13A, GAPDH, and ACTB) were used for normalization of the results.

SW-1990 tumors [2] = test: Human Apoptosis RT Profiler PCR Array, SW-1990; format: in vivo, human (xenograft in nude mice)
Excerpt: as §1

SW-1990 cancers = test: Experiment 2: SW-1990 tumor growth in nude mice; format: in vivo, human (xenograft in nude mice); conditions: for Tumor volume (final): control 3464±838; for Tumor volume (final) / Tumor weights, solid tumor part: AN-152 and DOX P<0.05 vs. control; for Tumor weights, tumors with cysts: control 3729±921, AN-152 P<0.05 vs. control; for Tumor weights, solid tumor part: cut, fluid released, control 2473±636
Method: (§2) Control and treatment groups were then selected at random.
All compounds were administered iv.(at 6.9 μmol/kg) once weekly for 7 weeks. There were 10 animals per group. The experiment was terminated 65 days after the first treatment.

CFPAC-1 cancers [3] = test: Human Apoptosis RT Profiler PCR Array, CFPAC-1; format: in vivo, human (xenograft in nude mice)
Excerpt: as §1

Panc-1 cancers [4] = test: Human Apoptosis RT Profiler PCR Array, Panc-1; format: in vivo, human (xenograft in nude mice)
Excerpt: as §1

[5] = Experiment 1: body and organ weights of mice; format: in vivo; conditions: Experiment 1, nude mice with Panc-1; AN-152 6.9 μmol/kg, DOX 2.5 μmol/kg iv
Method: as §2
(§3) In Experiment 1, nude mice with Panc-1 tumors were treated iv. on days 1, 8. […] There were 8 animals in each group. The experiment was terminated on day 82.

CFPAC-1 cancers [6] = test: Experiment 3: CFPAC-1 tumor growth in nude mice
Method: Chemicals, unless stated otherwise, were purchased from Sigma (St. Louis, MO).
Female athymic nude mice (Ncr nu/nu) were obtained from the National Cancer Institute (Frederick Cancer Research and Development Center, Frederick, MD), Charles River Laboratories International, Inc. (Durham, NC) and Harlan Laboratories (Tampa, FL) and maintained under pathogen-limited conditions. […] To produce tumor donor animals, 10^6 cells of each line were injected subcutaneously into 3 nude mice and grown until well-developed tumors were grown. The resulting tumors were removed, minced and 2 mm^3 pieces of tumor tissue were transplanted subcutaneously into each flank area of the experimental nude mice. When the tumors became measurable, the mice were divided into groups with nearly equal average tumor sizes. Control and treatment groups were then selected at random.
The compounds were given iv. on days 1, 5, 8, 12, 15 and 30. There were 8 animals per group, and the experiment lasted to the 61st day of the treatment period.
One-way ANOVA (Sigmaplot-11 software; Jandel Scientific, San Raphael, CA) was used for statistical evaluation of the data, and the groups were compared using Dunnett's method.

Panc-1 cancers [7] = test: Experiment 1: Panc-1 tumor growth in nude mice; format: in vivo, human (xenograft in nude mice); conditions: AN-152 6.9 μmol/kg, DOX 2.5 μmol/kg
Method: as §2, §3

SW-1990 tumors [8] = test: Human Cancer Pathway Finder PCR Array, SW-1990 tumors; format: in vivo, human (xenograft in nude mice)
Excerpt: as §1

Panc-1 cancers [9] = test: Human Cancer Pathway Finder PCR Array, Panc-1 tumors; format: in vivo, human (xenograft in nude mice)
Excerpt: as §1

[10] = tested on: three tumor lines (Panc-1, SW-1990, CFPAC-1); test: Human Cancer Pathway Finder PCR Array, three tumor lines together; format: in vivo, human (xenograft in nude mice)
Excerpt: as §1

[11] = Experiment 3: body and organ weights of mice; format: in vivo; conditions: Experiment 3, nude mice with CFPAC-1; iv
Excerpt: as §2

[12] = tested on: advanced pancreatic cancers; conditions: cited from earlier work
Excerpt: Pancreatic carcinoma is the 9th most common human cancer in the Western world, including the USA, but it is the fourth leading cause of cancer death in both males and females. Its incidence has increased in the white population by about 1% per year between 1999 through 2008. Ductal carcinomas of the pancreas are very aggressive tumors, and because of the concealed location of the gland, they are mostly detected in late stages of development when surgical removal is not useful. Thus, the 5-year survival rate is below 5% and the median survival time after diagnosis is less than 6 mo ...

[13] = tested on: nitrosamine-induced pancreatic cancers; conditions: hamsters; cited from earlier work
Excerpt: Receptors for various peptide hormones are present in pancreatic cancers and these receptors can be utilized for both diagnostic and therapeutic purposes.. […] [15, 21] however, their function and importance is still unclear. The combined detection of mRNA for both LH-RH and LH-RH receptor in rat pancreatic cancer lines raised the possibility of an autocrine/paracrine role of LH-RH in these tumors. The findings that both estrogen and androgen receptors are likewise expressed in pancreati ...

[14] = tested on: binding sites for LH-RH in nitrosamine-induced pancreatic cancers in hamsters; parameters: method as in PMID 15350601; conditions: cited from earlier work
[15] = SW-1990, 6.9 μmol/kg iv once weekly for 7 weeks, 10 animals/group, day 65, means ± SE

COc1cccc2c1C(=O)c1c(O)c3c(c(O)c1C2=O)C[C@@](O)(C(=O)CO)C[C@@H]3O[C@H]1C[C@H](N)[C@H](O)[C@H](C)O1 [DOX, doxorubicin]
Expression of cell cycle control and DNA damage repair genes (CFPAC-1 cancers [1]): only decreases
Expression of genes associated with adhesion (CFPAC-1 cancers [1]; treated vs control tumors): decreased
Expression of anti-apoptotic genes (SW-1990 tumors [2]): mostly increased
Expression of pro-apoptotic genes (SW-1990 tumors [2]; several genes): changed in both directions
Solid tumor weights (in words) (SW-1990 cancers; SW-1990, 6.9 μmol/kg iv once weekly for 7 weeks): reduced
Tumor volume (final) (SW-1990 cancers; [15]): 1213±381a mm3
Tumor weights, tumors with cysts (SW-1990 cancers; [15]): 1496 ± 466 mg
Tumor weights, solid tumor part (SW-1990 cancers; [15]): 585 ± 141 mg
Growth inhibition (in words) (SW-1990 cancers; SW-1990 in nude mice): inhibitory effect on growth
Expression of anti-apoptotic genes (CFPAC-1 cancers [3]): decreased
Expression of pro-apoptotic genes (CFPAC-1 cancers [3]; several genes): decreased
Expression of anti-apoptotic genes (Panc-1 cancers [4]): mostly increased
Expression of pro-apoptotic genes (Panc-1 cancers [4]; several genes): increased
Effect on body and organ weights [5]: Neither treatment had an effect on body and organ weights of the mice
Tumor volume (in words) (CFPAC-1 cancers [6]; iv days 1, 5, 8, 12, 15 and 30): moderate but not significant decrease
Tumor volume (final) (CFPAC-1 cancers [6]; iv days 1, 5, 8, 12, 15 and 30, 8 animals/group, day 61, means ± SE, control 2502±769, AN-152 P<0.05 vs. control): 1063±518 mm3
Tumor volume (final) (Panc-1 cancers [7]; Panc-1, iv days 1, 8, 15, 22, 33, 61, 8 animals/group, day 82, means ± SE, control 2040±1357, AN-152 P<0.05 vs. control): 849±363 mm3
Growth inhibition (in words) (Panc-1 cancers [7]; Panc-1 in nude mice, iv): only a moderate but not significant inhibitory effect
Expression of cell cycle control and DNA damage repair genes (SW-1990 tumors [8]): altered in both directions
Expression of genes associated with adhesion (SW-1990 tumors [8]; treated vs control tumors): changed in both directions
Expression of cell cycle control and DNA damage repair genes (Panc-1 cancers [9]): altered in both directions
Expression of genes associated with adhesion (Panc-1 cancers [9]; treated vs control tumors): decreased
Expression of genes related to invasion and metastasis ([10]; all three tumor lines, treated vs control tumors): causing the stronger increases
TIMP3 expression ([10]; three tumor lines): strongly increased
Expression of genes related to signal transduction molecules and transcription factors ([10]; three tumor lines, treated vs control tumors): caused considerable increases or decreases in some
Expression of apoptosis-associated genes ([10]; three tumors, Cancer Pathway Finder array): variable in the three tumors after both treatments
Body weights [11]: the lowest in the group receiving DOX, but the differences from control were statistically not significant
Ovarian weights [11]: reduced

Nc1ccn([C@@H]2O[C@H](CO)[C@@H](O)C2(F)F)c(=O)n1 [gemcitabine]
Clinical efficacy ([12]; gemcitabine alone or in combination with 5-fluorouracil, radiation or erlotinib, advanced pancreatic cancers): minimal palliation

D-Trp^6LH-RH
Cystic/solid tumor (weight ratio) (SW-1990 cancers; SW-1990, 6.9 μmol/kg iv once weekly for 7 weeks, 10 animals/group, day 65, means ± SE, control 1.56±0.12, AN-152 P<0.05 vs. all other groups): 1.56±0.11
Tumor volume (final) (SW-1990 cancers; [15]): 2791±646 mm3
Tumor weights, tumors with cysts (SW-1990 cancers; [15]): 3107 ± 696 mg
Tumor weights, solid tumor part (SW-1990 cancers; [15]): 1862 ± 361 mg
Growth inhibition of nitrosamine-induced pancreatic cancers [13]: inhibits growth

FOLFIRINOX
Toxicity ([12]; human, in vivo): highly toxic

LH-RH: hypothalamic peptide hormone
Affinity of binding sites for LH-RH [14]: moderate-affinity

cetrorelix
Growth inhibition of nitrosamine-induced pancreatic cancers [13]: inhibits growth
